Data from BindingDB's records for doi:10.1021/jm950932r (National Institute of Diabetes and Digestive and Kidney …, 1996).

Experiment: Compound was evaluated for inhibition of hormone stimulated Adenylate cyclase activity in N18TG2 membranes.

Row | SMILES | EC50
1 | O=C(c1cccc2ccccc12)c1cn(CCN2CCOCC2)c2ccccc12 | 275 nM
2 | Cc1c(C(=O)c2ccc(N=C=S)c3ccccc23)c2ccccc2n1CCN1CCOCC1 [(4-Isothiocyanato-naphthalen-1-yl)-[2-methyl-1-(2-morpholin-4-yl-ethyl)-1H-indol-3-yl]-methanone] | 3000 nM
3 | O=C(c1cccc2ccccc12)c1cn(CCN2CCOCC2)c2cc(N=C=S)ccc12 [[6-Isothiocyanato-1-(2-morpholin-4-yl-ethyl)-1H-indol-3-yl]-naphthalen-1-yl-methanone] | 1100 nM
4 | Cc1c(C(=O)c2cccc3ccccc23)c2ccccc2n1CCN1CCOCC1 | 370 nM
